Assay results reported in patent US8247211B2, “Glycopeptide antibiotics” (American Cyanamid Company, priority 2001, dated 2012).
Converted amounts (≈) assume the structure as drawn.

How the values were obtained:
Experiment in all cases: In vitro antibacterial evaluation: minimum inhibitory concentration (MIC), broth dilution method
Assay type in all cases: cell-based
Enterococcus sp. = test system: Enterococcus sp.
Procedure, shortened: (§1)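 Susceptibility determined by NCCLS-recommended broth dilution (M7-A2), Muller-Hinton II […]. Concentration span 64-0.06 μg/mL, inoculum 5×10^5 CFU/mL. Isolates include strains resistant to methicillin, penicillin and/or vancomycin.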

Escherichia coli = test system: Escherichia coli
Procedure, shortened: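 NCCLS M7-A2 broth dilution with Mueller-Hinton II, testing 64-0.06 μg/mL antibiotic against 5×10^5 CFU/mL inocula. Test strains include recent methicillin-, penicillin- or vancomycin-resistant clinical isolates. MIC is the lowest concentration preventing growth.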

Staphylococcus sp. = details: broth dilution, 18 hours at 35° C.
Procedure, shortened: as §1

Streptococcus sp. = test system: Streptococcus sp.
Procedure, shortened: as §1

COc1cc(OC)cc(C2OC3C(OC4C(CO)OC(Oc5ccc(CC6NC(=O)C(C(C)c7ccccc7)NC(=O)CNC(=O)C(CO)NC(=O)C(C(O)C7CNC(=N)N7C7OC(CO)C(O)C(O)C7O)NC(=O)C(C(O)C7CNC(=N)N7)NC6=O)cc5)C(O)C4O)OC(CO)C(O)C3O2)c1 (stereo not drawn) [Example 150a, Cyclo[glycyl-β-methylphenylalanyl-O-[4-O-[2,3-O-(3,5-dimethoxybenzylidene)hexopyranosyl]-hexopyranosyl]tyrosyl-3-(2-iminoimidazolidin-4-yl)seryl-3-(3-hexopyranosyl-2-iminoimidazolidin-4-yl)serylseryl]]
MIC Enterococcus faecalis (ATCC 29212) (Enterococcus sp.; strain ATCC 29212): >64 µg/mL
MIC Enterococcus faecalis (GC 2242) (Enterococcus sp.; strain GC 2242): >64 µg/mL
MIC Enterococcus faecium (GC 2243) (Enterococcus sp.; strain GC 2243): >64 µg/mL
MIC Enterococcus faecalis (GC 2691) (Enterococcus sp.; strain GC 2691): >64 µg/mL
MIC Enterococcus faecalis (GC 3059) (Enterococcus sp.; strain GC 3059): >64 µg/mL
MIC Enterococcus faecalis (GC 4552) (Enterococcus sp.; strain GC 4552): >64 µg/mL
MIC Enterococcus faecalis (GC 4553) (Enterococcus sp.; strain GC 4553): >64 µg/mL
MIC Enterococcus faecalis (GC 4554) (Enterococcus sp.; strain GC 4554): >64 µg/mL
MIC Enterococcus faecium (GC 4556) (Enterococcus sp.; strain GC 4556): >64 µg/mL
MIC Enterococcus faecium (GC 4557) (Enterococcus sp.; strain GC 4557): 16 µg/mL (≈ 11.1 µM)
MIC Enterococcus avium (GC 4558) (Enterococcus sp.; strain GC 4558): 64 µg/mL (≈ 44.3 µM)
MIC Enterococcus faecalis (GC 6189) (Enterococcus sp.; strain GC 6189): >64 µg/mL
MIC Escherichia coli (ATCC 25922) (Escherichia coli; strain ATCC 25922): >64 µg/mL
MIC Escherichia coli (GC 4559) (Escherichia coli; strain GC 4559): >64 µg/mL
MIC Escherichi coli (GC 4560) (Escherichia coli; strain GC 4560): 16 µg/mL (≈ 11.1 µM)
MIC Coagulase Negative Staphylococcus (GC 4547) (Staphylococcus sp.; 5×10^5 CFU/mL): 16 µg/mL (≈ 11.1 µM)
MIC Coagulase Negative Staphylococcus (GC 4548) (Staphylococcus sp.; 5×10^5 CFU/mL): 8 µg/mL (≈ 5.54 µM)
MIC Coagulase Negative Staphylococcus (GC 4549) (Staphylococcus sp.; 5×10^5 CFU/mL): 8 µg/mL (≈ 5.54 µM)
MIC Coagulase Negative Staphylococcus (GC 4551) (Staphylococcus sp.; 5×10^5 CFU/mL): 32 µg/mL (≈ 22.2 µM)
MIC Coagulase Negative Staphylococcus (GC 6257) (Staphylococcus sp.; 5×10^5 CFU/mL): 8 µg/mL (≈ 5.54 µM)
MIC Staphylococcus aureus (ATCC 29213) (Staphylococcus sp.; 5×10^5 CFU/mL): 32 µg/mL (≈ 22.2 µM)
MIC Staphylococcus aureus (GC 1131) (Staphylococcus sp.; 5×10^5 CFU/mL): 32 µg/mL (≈ 22.2 µM)
MIC Staphylococcus aureus (GC 3051) (Staphylococcus sp.; 5×10^5 CFU/mL): 32 µg/mL (≈ 22.2 µM)
MIC Staphylococcus aureus (GC 3053) (Staphylococcus sp.; 5×10^5 CFU/mL): 32 µg/mL (≈ 22.2 µM)
MIC Staphylococcus aureus (GC 4541) (Staphylococcus sp.; 5×10^5 CFU/mL): 16 µg/mL (≈ 11.1 µM)
MIC Staphylococcus aureus (GC 4542) (Staphylococcus sp.; 5×10^5 CFU/mL): 32 µg/mL (≈ 22.2 µM)
MIC Staphylococcus aureus (GC 4544) (Staphylococcus sp.; 5×10^5 CFU/mL): 32 µg/mL (≈ 22.2 µM)
MIC Staphylococcus aureus (GC 4545) (Staphylococcus sp.; 5×10^5 CFU/mL): 16 µg/mL (≈ 11.1 µM)
MIC Staphylococcus aureus-SMITH (GC 4543) (Staphylococcus sp.; 5×10^5 CFU/mL): 16 µg/mL (≈ 11.1 µM)
MIC Staphylococcus haemolyticus (GC 4546) (Staphylococcus sp.; 5×10^5 CFU/mL): 16 µg/mL (≈ 11.1 µM)
MIC Staphylococcus aureus (ATCC 29213) (Staphylococcus sp.; strain ATCC 29213): 32 µg/mL (≈ 22.2 µM)
MIC Staphylococcus aureus (GC 1131) (Staphylococcus sp.; strain GC 1131): 32 µg/mL (≈ 22.2 µM)
MIC Staphylococcus aureus (GC 3051) (Staphylococcus sp.; strain GC 3051): 32 µg/mL (≈ 22.2 µM)
MIC Staphylococcus aureus (GC 3053) (Staphylococcus sp.; strain GC 3053): 32 µg/mL (≈ 22.2 µM)
MIC Staphylococcus aureus (GC 4541) (Staphylococcus sp.; strain GC 4541): 16 µg/mL (≈ 11.1 µM)
MIC Staphylococcus aureus (GC 4542) (Staphylococcus sp.; strain GC 4542): 32 µg/mL (≈ 22.2 µM)
MIC Staphylococcus aureus-SMITH (GC 4543) (Staphylococcus sp.; strain GC 4543): 16 µg/mL (≈ 11.1 µM)
MIC Staphylococcus aureus (GC 4544) (Staphylococcus sp.; strain GC 4544): 32 µg/mL (≈ 22.2 µM)
MIC Staphylococcus aureus (GC 4545) (Staphylococcus sp.; strain GC 4545): 16 µg/mL (≈ 11.1 µM)
MIC Staphylococcus haemolyticus (GC 4546) (Staphylococcus sp.; strain GC 4546): 16 µg/mL (≈ 11.1 µM)
MIC Coagulase Negative Staphylococcus (GC 4547) (Staphylococcus sp.; strain GC 4547): 16 µg/mL (≈ 11.1 µM)
MIC Coagulase Negative Staphylococcus (GC 4548) (Staphylococcus sp.; strain GC 4548): 8 µg/mL (≈ 5.54 µM)
MIC Coagulase Negative Staphylococcus (GC 4549) (Staphylococcus sp.; strain GC 4549): 8 µg/mL (≈ 5.54 µM)
MIC Coagulase Negative Staphylococcus (GC 4551) (Staphylococcus sp.; strain GC 4551): 32 µg/mL (≈ 22.2 µM)
MIC Coagulase Negative Staphylococcus (GC 6257) (Staphylococcus sp.; strain GC 6257): 8 µg/mL (≈ 5.54 µM)
MIC Streptococcus pneumoniae (ATCC 6301) (Streptococcus sp.; strain ATCC 6301): 8 µg/mL (≈ 5.54 µM)
MIC Streptococcus pneumoniae (GC 1894) (Streptococcus sp.; strain GC 1894): 8 µg/mL (≈ 5.54 µM)
MIC Streptococcus pyogenes (GC 4563) (Streptococcus sp.; strain GC 4563): 16 µg/mL (≈ 11.1 µM)
MIC Streptococcus agalactiae (GC 4564) (Streptococcus sp.; strain GC 4564): 32 µg/mL (≈ 22.2 µM)
MIC Streptococcus pneumoniae (GC 4565) (Streptococcus sp.; strain GC 4565): 16 µg/mL (≈ 11.1 µM)
